In patent US9695155B2, “Herbicidal substituted pyrimidinyloxy benzene compounds” (E. I. DU PONT DE NEMOURS AND COMPANY, priority 2013, dated 2017):

Columns and labels:
[1] = system: field violet; test: Test D postemergence; type: in vivo, Viola arvensis; details: Viola arvensis, post-emergence, scale 0 to 100 (0 no effect, 100 complete control), read-out: Plant response rating, Field Violet
Summary of the method: (§1)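 After treatment, visual injury versus untreated plants, 0–100 scale, assessed at 7 to 21 days. Applications were made preemergence to silt loam-sown seed and postemergence to seedlings 2–18 cm high in potting medium.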

[2] = system: soybean; test: Test E postemergence; type: in vivo, Glycine max; details: Glycine max, post-emergence; for plant response (crop injury) rating, soybean, 0-100 scale at 31 g/ha / plant response (crop injury) rating, soybean, 0-100 scale at 62 g/ha / plant response (crop injury) rating, soybean, 0-100 scale at 125 g/ha / plant response (crop injury) rating, soybean, 0-100 scale at 250 g/ha: Postemergence, scale 0 to 100; for plant response (crop injury) rating, soybean, 0-100 scale at 31 g/ha: 31 g ai/ha; for plant response (crop injury) rating, soybean, 0-100 scale at 62 g/ha: 62 g ai/ha; for plant response (crop injury) rating, soybean, 0-100 scale at 125 g/ha: 125 g ai/ha; for plant response (crop injury) rating, soybean, 0-100 scale at 250 g/ha: 250 g ai/ha; for plant response (crop injury) rating, soybean, 0-100 scale at 16 g/ha: postemergence, 16 g ai/ha, scale 0 to 100, 0 no effect, 100 complete control
Summary of the method: (§2)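 Compound in a non-phytotoxic solvent mixture with surfactant was applied preemergence to seeds in silt loam soil, or postemergence to plants 2 to 18 cm tall grown in peat-based potting medium. Plants were kept in a greenhouse for 14 to 21 days, then rated visually against untreated controls on a 0 (no effect) to 100 (complete control) scale.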

[3] = system: spring wheat; test: Test D postemergence; type: in vivo, Triticum aestivum; details: Triticum aestivum, post-emergence, scale 0 to 100 (0 no effect, 100 complete control), read-out: Plant response rating, Wheat, Spring
Summary of the method: as §1

[4] = system: winter wheat; test: Test D postemergence; type: in vivo, Triticum aestivum; details: Triticum aestivum, post-emergence, scale 0 to 100 (0 no effect, 100 complete control), read-out: Plant response rating, Wheat, Winter
Summary of the method: as §1

[5] = system: field poppy; test: Test D preemergence; type: in vivo, Papaver rhoeas; details: Papaver rhoeas, pre-emergence, scale 0-100, read-out: Plant response rating, Field Poppy
Summary of the method: as §1

[6] = system: corn; test: Test E postemergence; type: in vivo, Zea mays; details: Zea mays, post-emergence; for corn plant response (injury) rating, 0-100 at 31 g/ha / corn plant response (injury) rating, 0-100 at 62 g/ha / corn plant response (injury) rating, 0-100 at 125 g/ha / corn plant response (injury) rating, 0-100 at 250 g/ha: Postemergence, scale 0 to 100; for corn plant response (injury) rating, 0-100 at 31 g/ha: 31 g ai/ha; for corn plant response (injury) rating, 0-100 at 62 g/ha: 62 g ai/ha; for corn plant response (injury) rating, 0-100 at 125 g/ha: 125 g ai/ha; for corn plant response (injury) rating, 0-100 at 250 g/ha: 250 g ai/ha; for corn plant response (injury) rating, 0-100 at 16 g/ha: postemergence, 16 g ai/ha, scale 0 to 100, 0 no effect, 100 complete control
Description: (§3) Seeds of plant species selected from corn (Zea mays), soybean (Glycine max), velvetleaf (Abutilon theophrasti), lambsquarters (Chenopodium album), wild poinsettia (Euphorbia heterophylla), palmer pigweed (Amaranthus palmeri), waterhemp (common waterhemp, Amaranthus rudis), surinam grass (Brachiaria decumbens), large (Lg) crabgrass (Digitaria sanguinalis), Brazilian crabgrass (Digitaria horizontalis), fall panicum (Panicum dichotomiflorum), giant foxtail (Setaria faberii), green foxtail (Setaria viridis), goosegrass (Eleusine indica), johnsongrass (Sorghum halepense), ragweed (common ragweed, Ambrosia elatior), barnyardgrass (Echinochloa crus-galli), sandbur (southern sandbur, Cenchrus echinatus), arrowleaf sida (Sida rhombifolia), Italian ryegrass (Lolium multiflorum), dayflower (Virginia (VA) dayflower, Commelina virginica), field bindweed (Convolvulus arvensis), morningglory (Ipomoea coccinea), nightshade (eastern black nightshade, Solanum ptycanthum), kochia (Kochia scoparia), yellow nutsedge (Cyperus esculentus), cocklebur (common cocklebur, Xanthium strumarium), smartweed (ladysthumb smartweed, and hairy beggarticks (Bidens pilosa), were planted into a silt loam soil and treated preemergence with test chemicals formulated in a non-phytotoxic solvent mixture which included a surfactant.
(§4) At the same time, plants from these crop and weed species and also horseweed (Canada horseweed, Conyza canadensis), waterhemp_RES1, (ALS & Triazine resistant common waterhemp, Amaranthus rudis), and waterhemp_RES2, (ALS & HPPD resistant common waterhemp, Amaranthus rudis) were planted in pots containing Redi-Earth® planting medium (Scotts Company, 14111 Scottslawn Road, Marysville, Ohio 43041) comprising spaghnum peat moss, vermiculite, wetting agent and starter nutrients were treated with postemergence applications of test chemicals formulated in the same manner. Plants ranged in height from 2 to 18 cm for postemergence treatments (1- to 4-leaf stage). Treated plants and controls were maintained in a greenhouse for 14 to 21 days, after which time all species were compared to controls and visually evaluated. Plant response ratings, summarized in Table E, are based on a scale of 0 to 100 where 0 is no effect and 100 is complete control. A dash (-) response means no test result.

[7] = system: sandbur; test: Test E postemergence; type: in vivo, Cenchrus echinatus; details: Cenchrus echinatus, post-emergence, read-out: Plant response rating, Sandbur; for pest or weed control at 31 g/ha / pest or weed control at 62 g/ha / pest or weed control at 125 g/ha / pest or weed control at 250 g/ha: Postemergence, scale 0 to 100; for pest or weed control at 31 g/ha: 31 g ai/ha; for pest or weed control at 62 g/ha: 62 g ai/ha; for pest or weed control at 125 g/ha: 125 g ai/ha; for pest or weed control at 250 g/ha: 250 g ai/ha; for pest or weed control at 16 g/ha: postemergence, 16 g ai/ha, scale 0 to 100, 0 no effect, 100 complete control
Summary of the method: as §2

[8] = system: spring wheat; test: Test D preemergence; type: in vivo, Triticum aestivum; details: Triticum aestivum, pre-emergence
Summary of the method: as §1

[9] = system: winter wheat; test: Test D preemergence; type: in vivo, Triticum aestivum; details: Triticum aestivum, pre-emergence
Summary of the method: as §1

[10] = system: arrowleaf sida; test: Test E postemergence; type: in vivo, Sida rhombifolia; details: Sida rhombifolia, post-emergence, read-out: Plant response rating, Arrowleaf Sida; for pest or weed control at 31 g/ha / pest or weed control at 62 g/ha / pest or weed control at 125 g/ha / pest or weed control at 250 g/ha: Postemergence, scale 0 to 100; for pest or weed control at 31 g/ha: 31 g ai/ha; for pest or weed control at 62 g/ha: 62 g ai/ha; for pest or weed control at 125 g/ha: 125 g ai/ha; for pest or weed control at 250 g/ha: 250 g ai/ha; for pest or weed control at 16 g/ha: postemergence, 16 g ai/ha, scale 0 to 100, 0 no effect, 100 complete control
Description: as §3, §4

[11] = system: Brazilian crabgrass; test: Test E postemergence; type: in vivo, Digitaria horizontalis; details: Digitaria horizontalis, post-emergence, read-out: Plant response rating, Crabgrass, Brazil; for pest or weed control at 31 g/ha / pest or weed control at 62 g/ha / pest or weed control at 125 g/ha / pest or weed control at 250 g/ha: Postemergence, scale 0 to 100; for pest or weed control at 31 g/ha: 31 g ai/ha; for pest or weed control at 62 g/ha: 62 g ai/ha; for pest or weed control at 125 g/ha: 125 g ai/ha; for pest or weed control at 250 g/ha: 250 g ai/ha; for pest or weed control at 16 g/ha: postemergence, 16 g ai/ha, scale 0 to 100, 0 no effect, 100 complete control
Summary of the method: as §2

## N#Cc1cccc(Oc2ncc(Br)cn2)c1-n1cc(C(F)(F)F)cn1 [Compound 59, 3-[(5-bromo-2-pyrimidinyl)oxy]-2-[4-(trifluoromethyl)-1H-pyrazol-1-yl]benzonitrile]
[1]; 31 g ai/ha
  pest or weed control at 31 g/ha: 100%
[1]; 62 g ai/ha
  pest or weed control at 62 g/ha: 100%
[1]; 125 g ai/ha
  pest or weed control at 125 g/ha: 100%
[1]; 250 g ai/ha
  pest or weed control at 250 g/ha: 100%
[2]
  plant response (crop injury) rating, soybean, 0-100 scale at 31 g/ha: 65%
  plant response (crop injury) rating, soybean, 0-100 scale at 62 g/ha: 95%
  plant response (crop injury) rating, soybean, 0-100 scale at 125 g/ha: 95%
  plant response (crop injury) rating, soybean, 0-100 scale at 250 g/ha: 98%
  plant response (crop injury) rating, soybean, 0-100 scale at 16 g/ha: 60%
[3]; 31 g ai/ha
  plant injury at 31 g/ha: 10%
[3]; 62 g ai/ha
  plant injury at 62 g/ha: 15%
[3]; 125 g ai/ha
  plant injury at 125 g/ha: 20%
[3]; 250 g ai/ha
  plant injury at 250 g/ha: 25%
[4]; 31 g ai/ha
  plant injury at 31 g/ha: 10%
[4]; 62 g ai/ha
  plant injury at 62 g/ha: 15%
[4]; 125 g ai/ha
  plant injury at 125 g/ha: 20%
[4]; 250 g ai/ha
  plant injury at 250 g/ha: 20%
[5]; 31 g ai/ha
  pest or weed control at 31 g/ha: 95%
[5]; 62 g ai/ha
  pest or weed control at 62 g/ha: 100%
[5]; 125 g ai/ha
  pest or weed control at 125 g/ha: 100%
[5]; 250 g ai/ha
  pest or weed control at 250 g/ha: 100%
[6]
  corn plant response (injury) rating, 0-100 at 31 g/ha: 5%
  corn plant response (injury) rating, 0-100 at 62 g/ha: 10%
  corn plant response (injury) rating, 0-100 at 125 g/ha: 10%
  corn plant response (injury) rating, 0-100 at 250 g/ha: 15%
  corn plant response (injury) rating, 0-100 at 16 g/ha: 5%
[7]
  pest or weed control at 31 g/ha: 0%
  pest or weed control at 62 g/ha: 0%
  pest or weed control at 125 g/ha: 10%
  pest or weed control at 250 g/ha: 20%
  pest or weed control at 16 g/ha: 0%
[8]; 31 g ai/ha, scale 0 (no effect) to 100 (complete control), read-out: Plant response rating, Wheat, Spring
  plant injury at 31 g/ha: 0%
[8]; 62 g ai/ha, scale 0-100, read-out: Plant response rating, Wheat, Spring
  plant injury at 62 g/ha: 5%
[8]; 125 g ai/ha, scale 0-100, read-out: Plant response rating, Wheat, Spring
  plant injury at 125 g/ha: 40%
[8]; 250 g ai/ha, scale 0-100, read-out: Plant response rating, Wheat, Spring
  plant injury at 250 g/ha: 55%
[9]; 31 g ai/ha, scale 0 (no effect) to 100 (complete control), read-out: Plant response rating, Wheat, Winter
  plant injury at 31 g/ha: 0%
[9]; 62 g ai/ha, scale 0-100, read-out: Plant response rating, Wheat, Winter
  plant injury at 62 g/ha: 5%
[9]; 125 g ai/ha, scale 0-100, read-out: Plant response rating, Wheat, Winter
  plant injury at 125 g/ha: 5%
[9]; 250 g ai/ha, scale 0-100, read-out: Plant response rating, Wheat, Winter
  plant injury at 250 g/ha: 35%
[10]
  pest or weed control at 31 g/ha: 70%
  pest or weed control at 62 g/ha: 80%
  pest or weed control at 125 g/ha: 85%
  pest or weed control at 250 g/ha: 90%
  pest or weed control at 16 g/ha: 65%
[11]
  pest or weed control at 31 g/ha: 15%
  pest or weed control at 62 g/ha: 20%
  pest or weed control at 125 g/ha: 25%
  pest or weed control at 250 g/ha: 50%
  pest or weed control at 16 g/ha: 15%

## Fc1cnc(Oc2ccccc2-n2cc(Br)cn2)nc1 [Compound 10, 2-[2-(4-bromo-1H-pyrazol-1-yl)phenoxy]-5-fluoropyrimidine]
[2]
  plant response (crop injury) rating, soybean, 0-100 scale at 31 g/ha: 50%
  plant response (crop injury) rating, soybean, 0-100 scale at 62 g/ha: 75%
  plant response (crop injury) rating, soybean, 0-100 scale at 125 g/ha: 90%
  plant response (crop injury) rating, soybean, 0-100 scale at 250 g/ha: 95%
  plant response (crop injury) rating, soybean, 0-100 scale at 16 g/ha: 30%
[6]
  corn plant response (injury) rating, 0-100 at 31 g/ha: 0%
  corn plant response (injury) rating, 0-100 at 62 g/ha: 0%
  corn plant response (injury) rating, 0-100 at 125 g/ha: 0%
  corn plant response (injury) rating, 0-100 at 250 g/ha: 0%
  corn plant response (injury) rating, 0-100 at 16 g/ha: 0%
[7]
  pest or weed control at 31 g/ha: 0%
  pest or weed control at 62 g/ha: 0%
  pest or weed control at 125 g/ha: 0%
  pest or weed control at 250 g/ha: 0%
  pest or weed control at 16 g/ha: 0%
[10]
  pest or weed control at 31 g/ha: 50%
  pest or weed control at 62 g/ha: 70%
  pest or weed control at 125 g/ha: 80%
  pest or weed control at 250 g/ha: 85%
  pest or weed control at 16 g/ha: 40%
[11]
  pest or weed control at 31 g/ha: 0%
  pest or weed control at 62 g/ha: 0%
  pest or weed control at 125 g/ha: 0%
  pest or weed control at 250 g/ha: 5%
  pest or weed control at 16 g/ha: 0%
